Reference: patent publication US12486253B2, “Therapeutics for the degradation of mutant BRAF” (C4 THERAPEUTICS, INC., priority 2021, dated 2025)
Read-outs that look alike come from different tables or passages of the source.

Target: BRAF V600E (Homo sapiens, UniProt P15056, V600E)
Assay: HiBiT cellular BRAF^V600E degradation assay
Assay type: cell-based
Settings: for DC50: concentration at which 50% of total cellular BRAF^V600E is degraded; for Emax: read-out: HiBit 24 h Emax
[1] = A375.10 cells, 24 h, residual protein remaining in the cell

Sequence of BRAF V600E (P15056 whole entry V600E): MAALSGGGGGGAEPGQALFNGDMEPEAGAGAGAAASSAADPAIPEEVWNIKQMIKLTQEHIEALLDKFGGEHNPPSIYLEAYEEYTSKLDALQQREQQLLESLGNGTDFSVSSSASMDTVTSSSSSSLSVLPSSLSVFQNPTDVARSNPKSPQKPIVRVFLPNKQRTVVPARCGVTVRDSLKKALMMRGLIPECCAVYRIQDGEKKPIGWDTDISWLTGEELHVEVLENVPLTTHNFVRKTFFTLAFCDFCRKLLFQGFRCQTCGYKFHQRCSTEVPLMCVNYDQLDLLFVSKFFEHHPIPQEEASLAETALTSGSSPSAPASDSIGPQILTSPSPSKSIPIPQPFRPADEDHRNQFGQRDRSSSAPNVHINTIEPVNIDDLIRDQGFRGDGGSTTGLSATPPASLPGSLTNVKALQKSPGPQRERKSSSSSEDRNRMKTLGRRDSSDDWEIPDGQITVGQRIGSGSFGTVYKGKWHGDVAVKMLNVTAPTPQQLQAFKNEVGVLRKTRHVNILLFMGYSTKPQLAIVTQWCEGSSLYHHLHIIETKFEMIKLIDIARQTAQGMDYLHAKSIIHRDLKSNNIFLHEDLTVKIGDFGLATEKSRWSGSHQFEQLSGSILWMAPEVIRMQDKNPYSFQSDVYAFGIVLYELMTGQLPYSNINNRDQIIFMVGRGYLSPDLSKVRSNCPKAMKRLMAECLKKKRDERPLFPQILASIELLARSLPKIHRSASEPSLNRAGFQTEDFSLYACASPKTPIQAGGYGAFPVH

Structure (SMILES)	DC50 (A375.10 cells, 24 h) [µM]	Emax [%]	Emax [1] [%]
N#Cc1c(NS(=O)(=O)N2CCCC2)ccc(F)c1Oc1ccc2ncn(-c3cnc(N4CCN(C(=O)CN5CCC(c6ccc(N[C@H]7CCC(=O)NC7=O)cc6F)CC5)CC4)nc3)c(=O)c2c1 [Example 107, N-[2-cyano-3-[3-[2-[4-[2-[4-[4-[[(3S)-2,6-dioxopiperidin-3-yl]amino]-2-fluorophenyl]piperidin-1-yl]acetyl]piperazin-1-yl]pyrimidin-5-yl]-4-oxoquinazolin-6-yl]oxy-4-fluorophenyl]pyrrolidine-1-sulfonamide]	0.0129	9.8	–
N#Cc1c(NS(=O)(=O)C2CCCC2)ccc(F)c1Oc1ccc2ncn(-c3cnc(N4CCN(C(=O)CN5CCC(c6ccc(N[C@@H]7CCC(=O)NC7=O)cc6F)CC5)CC4)nc3)c(=O)c2c1 [Example 108, N-[2-cyano-3-[3-[2-[4-[2-[4-[4-[[(3R)-2,6-dioxopiperidin-3-yl]amino]-2-fluorophenyl]piperidin-1-yl]acetyl]piperazin-1-yl]pyrimidin-5-yl]-4-oxoquinazolin-6-yl]oxy-4-fluorophenyl]cyclopentanesulfonamide]	0.0178	–	10.9
N#Cc1c(NS(=O)(=O)C2CCCC2)ccc(F)c1Oc1ccc2ncn(-c3cnc(N4CCN(C(=O)CN5CCC(c6ccc(N[C@H]7CCC(=O)NC7=O)cc6F)CC5)CC4)nc3)c(=O)c2c1 [Example 109, N-[2-cyano-3-[3-[2-[4-[2-[4-[4-[[(3S)-2,6-dioxopiperidin-3-yl]amino]-2-fluorophenyl]piperidin-1-yl]acetyl]piperazin-1-yl]pyrimidin-5-yl]-4-oxoquinazolin-6-yl]oxy-4-fluorophenyl]cyclopentanesulfonamide]	0.0125	–	9.04
CO[C@H]1CCN(S(=O)(=O)Nc2ccc(F)c(Oc3ccc4ncn(-c5cnc(N6CCN(C(=O)CN7CCC(c8ccc(N[C@@H]9CCC(=O)NC9=O)cc8F)CC7)CC6)nc5)c(=O)c4c3)c2C#N)C1 [Example 110, (3S)—N-[2-cyano-3-[3-[2-[4-[2-[4-[4-[[(3R)-2,6-dioxopiperidin-3-yl]amino]-2-fluorophenyl]piperidin-1-yl]acetyl]piperazin-1-yl]pyrimidin-5-yl]-4-oxoquinazolin-6-yl]oxy-4-fluorophenyl]-3-methoxypyrrolidine-1-sulfonamide]	0.0425	–	8.22
CO[C@H]1CCN(S(=O)(=O)Nc2ccc(F)c(Oc3ccc4ncn(-c5cnc(N6CCN(C(=O)CN7CCC(c8ccc(N[C@H]9CCC(=O)NC9=O)cc8F)CC7)CC6)nc5)c(=O)c4c3)c2C#N)C1 [Example 111, (3S)—N-[2-cyano-3-[3-[2-[4-[2-[4-[4-[[(3S)-2,6-dioxopiperidin-3-yl]amino]-2-fluorophenyl]piperidin-1-yl]acetyl]piperazin-1-yl]pyrimidin-5-yl]-4-oxoquinazolin-6-yl]oxy-4-fluorophenyl]-3-methoxypyrrolidine-1-sulfonamide]	0.0186	–	10.3
CC(C)S(=O)(=O)Nc1ccc(F)c(Oc2ccc3ncn(-c4cnc(N5CCN(C(=O)CN6CCC(c7ccc(N[C@H]8CCC(=O)NC8=O)cc7F)CC6)CC5)nc4)c(=O)c3c2)c1C#N [Example 112, N-[2-cyano-3-[3-[2-[4-[2-[4-[4-[[(3S)-2,6-dioxopiperidin-3-yl]amino]-2-fluorophenyl]piperidin-1-yl]acetyl]piperazin-1-yl]pyrimidin-5-yl]-4-oxoquinazolin-6-yl]oxy-4-fluorophenyl]propane-2-sulfonamide]	0.00647	–	8.79
N#Cc1c(NS(=O)(=O)N2CCCCC2)ccc(F)c1Oc1ccc2ncn(-c3cnc(N4CCN(C(=O)CN5CCC(c6ccc(N[C@H]7CCC(=O)NC7=O)cc6F)CC5)CC4)nc3)c(=O)c2c1 [Example 113, N-[2-cyano-3-[3-[2-[4-[2-[4-[4-[[(3S)-2,6-dioxopiperidin-3-yl]amino]-2-fluorophenyl]piperidin-1-yl]acetyl]piperazin-1-yl]pyrimidin-5-yl]-4-oxoquinazolin-6-yl]oxy-4-fluorophenyl]piperidine-1-sulfonamide]	0.0297	–	11.1
N#Cc1c(NS(=O)(=O)C2CC2)ccc(F)c1Oc1ccc2ncn(-c3cnc(N4CCN(C(=O)CN5CCC(c6ccc(N[C@H]7CCC(=O)NC7=O)cc6F)CC5)CC4)nc3)c(=O)c2c1 [Example 114, N-[2-cyano-3-[3-[2-[4-[2-[4-[4-[[(3S)-2,6-dioxopiperidin-3-yl]amino]-2-fluorophenyl]piperidin-1-yl]acetyl]piperazin-1-yl]pyrimidin-5-yl]-4-oxoquinazolin-6-yl]oxy-4-fluorophenyl]cyclopropanesulfonamide]	0.00833	–	9.6
N#Cc1c(NS(=O)(=O)C2CC2)ccc(F)c1Oc1ccc2ncn(-c3cnc(N4CCN(C(=O)CN5CCC(c6ccc(N[C@@H]7CCC(=O)NC7=O)cc6F)CC5)CC4)nc3)c(=O)c2c1 [Example 115, N-[2-cyano-3-[3-[2-[4-[2-[4-[4-[[(3R)-2,6-dioxopiperidin-3-yl]amino]-2-fluorophenyl]piperidin-1-yl]acetyl]piperazin-1-yl]pyrimidin-5-yl]-4-oxoquinazolin-6-yl]oxy-4-fluorophenyl]cyclopropanesulfonamide]	0.0161	–	12.8
N#Cc1c(NS(=O)(=O)N2CC[C@@H](F)C2)ccc(F)c1Oc1ccc2ncn(-c3cnc(N4CCN(C(=O)CN5CCC(c6ccc(N[C@H]7CCC(=O)NC7=O)cc6F)CC5)CC4)nc3)c(=O)c2c1 [Example 116, (3R)—N-[2-cyano-3-[3-[2-[4-[2-[4-[4-[[(3S)-2,6-dioxopiperidin-3-yl]amino]-2-fluorophenyl]piperidin-1-yl]acetyl]piperazin-1-yl]pyrimidin-5-yl]-4-oxoquinazolin-6-yl]oxy-4-fluorophenyl]-3-fluoropyrrolidine-1-sulfonamide]	0.0171	–	9.01
COC1CN(S(=O)(=O)Nc2ccc(F)c(Oc3ccc4ncn(-c5cnc(N6CCN(C(=O)CN7CCC(c8ccc(N[C@H]9CCC(=O)NC9=O)cc8F)CC7)CC6)nc5)c(=O)c4c3)c2C#N)C1 [Example 117, N-[2-cyano-3-[3-[2-[4-[2-[4-[4-[[(3S)-2,6-dioxopiperidin-3-yl]amino]-2-fluorophenyl]piperidin-1-yl]acetyl]piperazin-1-yl]pyrimidin-5-yl]-4-oxoquinazolin-6-yl]oxy-4-fluorophenyl]-3-methoxyazetidine-1-sulfonamide]	0.0383	–	9.02
CC(C)S(=O)(=O)Nc1ccc(F)c(Oc2ccc3ncn(-c4cnc(N5CCN(C(=O)CN6CCC(c7ccc(N[C@@H]8CCC(=O)NC8=O)cc7F)CC6)CC5)nc4)c(=O)c3c2)c1C#N [Example 118, N-[2-cyano-3-[3-[2-[4-[2-[4-[4-[[(3R)-2,6-dioxopiperidin-3-yl]amino]-2-fluorophenyl]piperidin-1-yl]acetyl]piperazin-1-yl]pyrimidin-5-yl]-4-oxoquinazolin-6-yl]oxy-4-fluorophenyl]propane-2-sulfonamide]	0.0187	–	9.98
CN(CC(F)F)S(=O)(=O)Nc1ccc(F)c(Oc2ccc3ncn(-c4cnc(N5CCN(C(=O)CN6CCC(c7ccc(N[C@@H]8CCC(=O)NC8=O)cc7F)CC6)CC5)nc4)c(=O)c3c2)c1C#N [Example 119, 6-[2-cyano-3-[[2,2-difluoroethyl(methyl)sulfamoyl]amino]-6-fluorophenoxy]-3-[2-[4-[2-[4-[4-[[(3R)-2,6-dioxopiperidin-3-yl]amino]-2-fluorophenyl]piperidin-1-yl]acetyl]piperazin-1-yl]pyrimidin-5-yl]-4-oxoquinazoline]	0.0469	–	12.8
CN(CCF)S(=O)(=O)Nc1ccc(F)c(Oc2ccc3ncn(-c4cnc(N5CCN(C(=O)CN6CCC(c7ccc(N[C@@H]8CCC(=O)NC8=O)cc7F)CC6)CC5)nc4)c(=O)c3c2)c1C#N [Example 120, 6-[2-cyano-6-fluoro-3-[[2-fluoroethyl(methyl)sulfamoyl]amino]phenoxy]-3-[2-[4-[2-[4-[4-[[(3R)-2,6-dioxopiperidin-3-yl]amino]-2-fluorophenyl]piperidin-1-yl]acetyl]piperazin-1-yl]pyrimidin-5-yl]-4-oxoquinazoline]	0.0138	–	11.6
CN(CCF)S(=O)(=O)Nc1ccc(F)c(Oc2ccc3ncn(-c4cnc(N5CCN(C(=O)CN6CCC(c7ccc(N[C@H]8CCC(=O)NC8=O)cc7F)CC6)CC5)nc4)c(=O)c3c2)c1C#N [Example 121, 6-[2-cyano-6-fluoro-3-[[2-fluoroethyl(methyl)sulfamoyl]amino]phenoxy]-3-[2-[4-[2-[4-[4-[[(3S)-2,6-dioxopiperidin-3-yl]amino]-2-fluorophenyl]piperidin-1-yl]acetyl]piperazin-1-yl]pyrimidin-5-yl]-4-oxoquinazoline]	0.0146	–	7.8
CN(CC(F)F)S(=O)(=O)Nc1ccc(F)c(Oc2ccc3ncn(-c4cnc(N5CCN(C(=O)CN6CCC(c7ccc(N[C@H]8CCC(=O)NC8=O)cc7F)CC6)CC5)nc4)c(=O)c3c2)c1C#N [Example 122, 6-[2-cyano-3-[[2,2-difluoroethyl(methyl)sulfamoyl]amino]-6-fluorophenoxy]-3-[2-[4-[2-[4-[4-[[(3S)-2,6-dioxopiperidin-3-yl]amino]-2-fluorophenyl]piperidin-1-yl]acetyl]piperazin-1-yl]pyrimidin-5-yl]-4-oxoquinazoline]	0.0271	–	8.26
N#Cc1c(NS(=O)(=O)N2CCC(F)(F)C2)ccc(F)c1Oc1ccc2ncn(-c3cnc(N4CCN(C(=O)CN5CCC(c6ccc(N[C@@H]7CCC(=O)NC7=O)cc6F)CC5)CC4)nc3)c(=O)c2c1 [Example 123, N-[2-cyano-3-[3-[2-[4-[2-[4-[4-[[(3R)-2,6-dioxopiperidin-3-yl]amino]-2-fluorophenyl]piperidin-1-yl]acetyl]piperazin-1-yl]pyrimidin-5-yl]-4-oxoquinazolin-6-yl]oxy-4-fluorophenyl]-3,3-difluoropyrrolidine-1-sulfonamide]	0.0507	–	14
